Columns and labels:
Format in all cases: in vitro ADME
[1] = Assay 2. Stability in Simulated Intestinal Fluid (SIF); conditions: 1 μM, 37° C., SIF pH 6.7 with pancreatin
How it was run: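 Degradation rate measured by LC/MS after acetonitrile quench of timed aliquots, starting at T0. Test compound 1 μM in simulated intestinal fluid (pH 6.7 phosphate buffer, FaSSIF powder, pancreatin), shaken at 37 °C.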

[2] = Assay 1. Stability in Simulated Gastric Fluid (SGF); conditions: 1 μM, 37° C., SGF pH 1.6 with pepsin
How it was run: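 Simulated gastric fluid, prepared fresh as NaCl buffer at pH 1.6 with 0.1 mg/mL pepsin and FaSSIF powder, received test compound to 1 μM final and was held at 37 °C. LC/MS of acetonitrile-quenched samples, taken immediately and then periodically, gave degradation rates.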

[3] = Assay 3. Fecal Incubation Stability; conditions: 1 or 10 μM, human fecal slurry, anaerobic

SMILES	Assay 2 (SIF) (% @ Remaining 4 hours) [1]	Assay 1 (SGF) (% Remaining @ 1 hours) [2]	Assay 3 (% Remaining at 24 h) [3]
CCCC(=O)OC[C@H]1O[C@H](OC)[C@H](OC(=O)CCC)[C@@H](OC(=O)CCC)[C@@H]1OC(=O)CCC [Compound 87, [(2R,3R,4S,5R,6S)-3,4,5-tris(butanoyloxy)-6-methoxyoxan-2-yl]methyl Butanoate]	A (A: <25% of the tested compound remaining)	B (B: 25-75% of the tested compound remaining)	A (A: <25% of the tested compound remaining)
CCCC(=O)OC[C@H]1O[C@@H](OC(=O)CCc2c[nH]c3ccccc23)[C@H](OC(=O)CCC)[C@@H](OC(=O)CCC)[C@@H]1OC(=O)CCC [Compound 118, [(2R,3R,4S,5R,6S)-3,4,5-tris(butanoyloxy)-6-{[3-(1H-indol-3-yl)propanoyl]oxy}oxan-2-yl]methyl Butanoate]	A (A: <25% of the tested compound remaining)	B (B: 25-75% of the tested compound remaining)	A (A: <25% of the tested compound remaining)
CCC(=O)O[C@@H]1[C@@H](OC(=O)CC)[C@H](C)O[C@H](OC(=O)/C=C/c2c[nH]c3ccccc23)[C@@H]1OC(=O)CC [Compound 139, (2R,3R,4R,5S,6S)-6-methyl-3,4,5-tris(propanoyloxy)oxan-2-yl (2E)-3-(1H-indol-3-yl)prop-2-enoate]	A (A: <25% of the tested compound remaining)	B (B: 25-75% of the tested compound remaining)	B (B: 25-75% of the tested compound remaining)
CCC(=O)Oc1cc(C(=O)O)cc(OC(=O)CC)c1OC(=O)CC [Compound 239, 3,4,5-tris(propanoyloxy)benzoic Acid]	A (A: <25% of the tested compound remaining)	C (C: >75% of the tested compound remaining)	A (A: <25% of the tested compound remaining)
CCCC(=O)O[C@@H]1[C@@H](OC(=O)CCC)[C@@H](OC)OC[C@@H]1OC(=O)CCC [Compound 85, (2S,3R,4S,5S)-3,5-bis(butanoyloxy)-2-methoxyoxan-4-yl Butanoate]	B (B: 25-75% of the tested compound remaining)	B (B: 25-75% of the tested compound remaining)	B (B: 25-75% of the tested compound remaining)
CCC(=O)OC[C@H]1O[C@H](OC(=O)CCc2c[nH]c3ccccc23)[C@H](OC(=O)CC)[C@@H](OC(=O)CC)[C@@H]1OC(=O)CC [Compound 141, [(2R,3R,4S,5R,6R)-6-{[3-(1H-indol-3-yl)propanoyl]oxy}-3,4,5-tris(propanoyloxy)oxan-2-yl]methyl Propanoate]	A (A: <25% of the tested compound remaining)	C (C: >75% of the tested compound remaining)	A (A: <25% of the tested compound remaining)
C[C@@H]1CCO[C@](C)(C(=O)Oc2ccc(/C=C/c3cc(OC(=O)[C@@]4(C)OCC[C@@H](C)O4)cc(OC(=O)[C@@]4(C)OCC[C@@H](C)O4)c3)cc2)O1 [Compound 257, 3-[(2S,4R)-2,4-dimethyl-1,3-dioxane-2-carbonyloxy]-5-[(1E)-2-{4-[(2S,4R)-2,4-dimethyl-1,3-dioxane-2-carbonyloxy]phenyl}ethenyl]phenyl (2S,4R)-2,4-dimethyl-1,3-dioxane-2-carboxylate]	A (A: <25% of the tested compound remaining)	C (C: >75% of the tested compound remaining)	A (A: <25% of the tested compound remaining)
CC(=O)O[C@@H]1[C@H](OC(C)=O)C=C(C(=O)O)C[C@H]1OC(C)=O [Compound 43, (3R,4S,5R)-3,4,5-triacetoxycyclohex-1-ene-1-carboxylic Acid]	C (C: >75% of the tested compound remaining)	C (C: >75% of the tested compound remaining)	B (B: 25-75% of the tested compound remaining)
CCCC(=O)O[C@@H]1[C@H](OC(=O)CCC)C=C(C(=O)O)C[C@H]1OC(=O)CCC [Compound 255, (3R,4S,5R)-3,4,5-tris(butanoyloxy)cyclohex-1-ene-1-carboxylic Acid]	C (C: >75% of the tested compound remaining)	C (C: >75% of the tested compound remaining)	B (B: 25-75% of the tested compound remaining)
CCCC(=O)O[C@H]1[C@H](OC)OC[C@@H](OC(=O)CCC)[C@H]1OC(=O)CCC [Compound 83, (2R,3R,4R,5R)-3,5-bis(butanoyloxy)-2-methoxyoxan-4-yl Butanoate]	A (A: <25% of the tested compound remaining)	C (C: >75% of the tested compound remaining)	A (A: <25% of the tested compound remaining)
CCC(=O)O[C@@H]1[C@H](OC(=O)CC)COC(O)[C@@H]1OC(=O)CC (stereo partly drawn) [Compound 137, (3R,4R,5R)-2-hydroxy-4,5-bis(propanoyloxy)oxan-3-yl Propanoate]	B (B: 25-75% of the tested compound remaining)	C (C: >75% of the tested compound remaining)	B (B: 25-75% of the tested compound remaining)
CCC(=O)O[C@H]1[C@H](OC(=O)CCc2c[nH]c3ccccc23)OC[C@@H](OC(=O)CC)[C@H]1OC(=O)CC [Compound 130, (2S,3R,4R,5R)-3,4,5-tris(propanoyloxy)oxan-2-yl 3-(1H-indol-3-yl)propanoate]	A (A: <25% of the tested compound remaining)	B (B: 25-75% of the tested compound remaining)	A (A: <25% of the tested compound remaining)
CO[C@@H]1OC[C@@H](OC(C)=O)[C@H](OC(C)=O)[C@H]1OC(C)=O [Compound 45, (2R,3R,4S,5R)-2-methoxytetrahydro-2H-pyran-3,4,5-triyl Triacetate]	B (B: 25-75% of the tested compound remaining)	C (C: >75% of the tested compound remaining)	B (B: 25-75% of the tested compound remaining)
CCC(=O)O[C@@H]1O[C@@H](C)[C@H](OC(=O)CC)[C@@H](OC(=O)CC)[C@H]1OC(=O)CC [Compound 111, (2S,3R,4R,5S,6S)-6-methyl-3,4,5-tris(propanoyloxy)oxan-2-yl propanoate]	A (A: <25% of the tested compound remaining)	B (B: 25-75% of the tested compound remaining)	A (A: <25% of the tested compound remaining)
CCC(=O)Oc1ccc(-c2cc(=O)c3c(OC(=O)CC)cc(OC(=O)CC)cc3o2)cc1 [Compound 203, 4-oxo-7-(propanoyloxy)-2-[4-(propanoyloxy)phenyl]-4H-chromen-5-yl Propanoate]	A (A: <25% of the tested compound remaining)	C (C: >75% of the tested compound remaining)	B (B: 25-75% of the tested compound remaining)
CCCC(=O)O[C@@H]1[C@@H](OC(=O)CCC)[C@H](C)O[C@@H](OC(=O)CCc2c[nH]c3ccccc23)[C@@H]1OC(=O)CCC [Compound 116, (2S,3R,4R,5S,6S)-4,5-bis(butanoyloxy)-2-{[3-(1H-indol-3-yl)propanoyl]oxy}-6-methyloxan-3-yl Butanoate]	A (A: <25% of the tested compound remaining)	C (C: >75% of the tested compound remaining)	A (A: <25% of the tested compound remaining)
CCC(=O)Oc1ccc(-c2cc(=O)c3c(O)cc(OC(=O)CC)cc3o2)cc1 [Compound 199, 5-hydroxy-4-oxo-2-[4-(propanoyloxy)phenyl]-4H-chromen-7-yl Propanoate]	A (A: <25% of the tested compound remaining)	B (B: 25-75% of the tested compound remaining)	A (A: <25% of the tested compound remaining)
CCC(=O)OC[C@H]1O[C@@H](OC(=O)CCc2c[nH]c3ccccc23)[C@H](OC(=O)CC)[C@@H](OC(=O)CC)[C@@H]1OC(=O)CC [Compound 144, [(2R,3R,4S,5R,6S)-6-{[3-(1H-indol-3-yl)propanoyl]oxy}-3,4,5-tris(propanoyloxy)oxan-2-yl]methyl Propanoate]	A (A: <25% of the tested compound remaining)	C (C: >75% of the tested compound remaining)	A (A: <25% of the tested compound remaining)

Source: patent publication US10953027B2, “Active agents and methods of their use for the treatment of metabolic disorders and nonalcoholic fatty liver disease” (Flagship Pioneering Innovations V, Inc., priority 2018, dated 2021)
